According to ChEMBL document CHEMBL2016523, “Discovery of an orally-bioavailable CC Chemokine Receptor 2 antagonist derived from an acyclic diaminoalcohol backbone” (Bioorg Med Chem Lett, 2012):
Activity calls are given as the source filed them. The calls are words filed in the database; no cut-off is given here.

Columns and labels:
[1] = molecular target: T1, C-C chemokine receptor type 2 (Homo sapiens, UniProt P41597); experiment: Displacement of [125-I]MCP1 from CCR2 on human PBMC
Target sequence in this assay (P41597 whole entry): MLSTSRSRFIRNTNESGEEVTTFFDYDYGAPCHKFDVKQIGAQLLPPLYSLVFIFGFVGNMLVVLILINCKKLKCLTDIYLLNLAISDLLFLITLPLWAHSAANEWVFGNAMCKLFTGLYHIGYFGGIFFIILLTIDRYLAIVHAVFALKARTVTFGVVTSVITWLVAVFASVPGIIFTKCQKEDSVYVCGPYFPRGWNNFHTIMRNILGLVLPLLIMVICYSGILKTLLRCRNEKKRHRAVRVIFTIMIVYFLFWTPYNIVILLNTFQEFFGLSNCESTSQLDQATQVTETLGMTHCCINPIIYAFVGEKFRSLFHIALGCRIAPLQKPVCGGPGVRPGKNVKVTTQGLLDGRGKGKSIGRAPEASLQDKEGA

[2] = molecular target: C-C chemokine receptor type 2 (Mus musculus) (UniProt P51683); experiment: Binding affinity to mouse CCR2
[3] = molecular target: C-C chemokine receptor type 5 (Mus musculus, UniProt P51682); experiment: Binding affinity to mouse CCR5
Mus musculus [4] = organism: Mus musculus; experiment: Selectivity for mouse CCR2 over mouse CCR1
[5] = molecular target: C-C chemokine receptor type 2 (Mus musculus) (UniProt P51683); experiment: Antagonist activity at CCR2 in mouse monocytes assessed as inhibition of MCP1-induced calcium flux; assay type: functional, cell-based
[6] = Oral bioavailability in mouse; assay type: ADME, organism-based; conditions: in vivo
[7] = Clearance in mouse; assay type: ADME, organism-based; conditions: in vivo
Mus musculus [8] = organism: Mus musculus; experiment: Selectivity for mouse CCR2 over mouse CCR2
[9] = molecular target: C-C chemokine receptor type 2 (Mus musculus) (UniProt P51683); experiment: Antagonist activity at CCR2 in mouse monocytes assessed as inhibition of MCP1-induced cAMP depression; assay type: functional, cell-based
[10] = molecular target: T1, C-C chemokine receptor type 2; experiment: Displacement of [125-I]MCP1 from CCR2 on human PBMC at 1 uM
Target sequence in this assay (P41597 whole entry, looked up): as the sequence (P41597 whole entry) above

Sequence of C-C chemokine receptor type 2 (Mus musculus) (P51683 whole entry, looked up): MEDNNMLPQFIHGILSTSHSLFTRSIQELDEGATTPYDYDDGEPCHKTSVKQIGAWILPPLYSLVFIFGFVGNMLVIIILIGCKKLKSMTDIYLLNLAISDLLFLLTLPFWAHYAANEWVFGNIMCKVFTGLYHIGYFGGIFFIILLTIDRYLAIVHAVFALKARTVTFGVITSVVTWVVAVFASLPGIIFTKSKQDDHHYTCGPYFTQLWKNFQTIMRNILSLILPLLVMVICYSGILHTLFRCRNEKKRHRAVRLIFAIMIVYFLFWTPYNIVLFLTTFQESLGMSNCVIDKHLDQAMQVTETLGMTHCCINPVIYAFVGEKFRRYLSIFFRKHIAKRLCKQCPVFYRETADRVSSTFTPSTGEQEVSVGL
Sequence of C-C chemokine receptor type 5 (P51682 whole entry): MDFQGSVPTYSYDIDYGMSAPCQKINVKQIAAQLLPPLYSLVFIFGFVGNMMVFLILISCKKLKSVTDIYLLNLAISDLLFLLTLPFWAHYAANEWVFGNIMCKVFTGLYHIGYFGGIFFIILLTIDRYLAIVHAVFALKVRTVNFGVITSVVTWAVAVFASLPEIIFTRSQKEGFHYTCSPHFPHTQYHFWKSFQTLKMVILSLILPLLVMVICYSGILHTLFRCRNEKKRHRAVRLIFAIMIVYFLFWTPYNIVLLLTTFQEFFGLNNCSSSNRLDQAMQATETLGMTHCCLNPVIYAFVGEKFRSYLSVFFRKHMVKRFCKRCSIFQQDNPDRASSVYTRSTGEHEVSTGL

## CCC[C@H](O)[C@H](CNCc1ccc(C)cc1C)NC(=O)CNC(=O)c1cc(C(F)(F)F)ccc1NC(=O)N1CCCC1
[1]
  IC50: 5.8 nM

## CCC[C@H](O)[C@H](CNCc1ccc(C)cc1C)NC(=O)CNC(=O)c1cc(C(F)(F)F)ccc1NC(C)(C)C
[1]
  IC50: 7.4 nM

## CCC[C@H](O)[C@H](CNCc1ccc(C)cc1C)NC(=O)CC(=O)Nc1cc(NC)cc(C(F)(F)F)c1
[1]
  IC50: 7.1 nM

## Cc1ccc(CNC[C@H](NC(=O)CNC(=O)c2cccc(C(F)(F)F)c2)[C@H](O)CC(C)(C)C)c(C)c1
[1]
  IC50: 600 nM

## Cc1ccc(CNC[C@H](NC(=O)CNC(=O)c2cccc(C(F)(F)F)c2)[C@@H](O)c2ccccc2)c(C)c1
[1]
  IC50: 100 nM

## CCCC[C@@H](O)[C@H](CNCc1ccc(C)cc1C)NC(=O)CNC(=O)c1cccc(C(F)(F)F)c1
[1]
  IC50: 180 nM

## CCC[C@H](O)[C@H](CNCc1ccc(C)cc1C)NC(=O)CNC(=O)c1cc(C(F)(F)F)ccc1NC(=O)N1CCC1
[1]
  IC50: 2.1 nM

## Cc1ccc(CNC[C@H](NC(=O)CNC(=O)c2cccc(C(F)(F)F)c2)[C@H](O)C(C)C)c(C)c1
[1]
  IC50: 100 nM

## CCC[C@H](O)[C@H](CN(Cc1ccc(C)cc1C)C(C)C)NC(=O)CNC(=O)c1cc(C(F)(F)F)ccc1NC(=O)NC(C)C
[1]
  IC50: 1700 nM

## CCC[C@H](O)[C@H](CNCc1ccc(C)cc1C)N1CC[C@@H](NC(=O)c2cc(C(F)(F)F)ccc2NC(=O)OC(C)(C)C)C1=O
[1]
  IC50: 28000 nM

## CCC[C@H](O)[C@H](CNCc1ccc(C)cc1C)NC(=O)CC(=O)Nc1cc(NC(=O)NCC)cc(C(F)(F)F)c1
[1]
  IC50: 40 nM

## CCC[C@H](O)[C@H](CNCc1ccc(C)cc1C)NC(=O)CNC(=O)c1cc(C(F)(F)F)ccc1N
[2]
  inhibition: Active
[1]
  IC50: 3.4 nM

## CCC[C@H](O)[C@H](CNCc1ccc(C)cc1C)NC(=O)CNC(=O)c1cc(C(F)(F)F)ccc1NC(C)C
[1]
  IC50: 5.3 nM

## Cc1ccc(CNC[C@H](NC(=O)CNC(=O)c2cccc(C(F)(F)F)c2)[C@H](O)c2ccccc2)c(C)c1
[1]
  IC50: > 1000 nM

## CCC[C@H](O)[C@H](CNCc1ccc(C)cc1C)NC(=O)CC(=O)Nc1cc(Br)cc(C(F)(F)F)c1
[1]
  IC50: 710 nM

## CCC[C@H](O)[C@H](CNCc1ccc(C)cc1C)NC(=O)CC(=O)Nc1cc(OC)cc(C(F)(F)F)c1
[1]
  IC50: 24 nM

## CCC[C@H](O)[C@H](CNCc1ccc(C)cc1C)N1CC[C@H](NC(=O)c2cc(C(F)(F)F)ccc2NC(=O)OC(C)(C)C)C1=O
[1]
  IC50: 1040 nM

## CCC[C@H](O)[C@H](CNCc1ccc(C)cc1C)NC(=O)Cc1nc2c(C(F)(F)F)cccc2[nH]1
[1]
  IC50: 49 nM

## CCC[C@H](O)[C@H](CNCc1ccc(C)cc1C)NC(=O)CC(=O)Nc1cc(C(F)(F)F)ccc1OC
[1]
  IC50: 217 nM

## CCC[C@H](O)[C@H](CNCc1ccc(C)cc1C)NC(=O)CNC(=O)c1cc(C(F)(F)F)ccc1NC(=O)NCC
[3]
  IC50: 86 nM
[2]
  inhibition: Active
Mus musculus [4]
  Selectivity ratio: > 1000
[1]
  IC50: 3.6 nM
[5]
  Activity: Active
[6]
  bioavailability: 29%
[7]
  clearance: 85 mL/min/kg
Mus musculus [8]
  Selectivity ratio: > 1000
[9]
  Activity: Active

## CCC[C@H](O)[C@H](CNCc1ccc(C)cc1C)N1CC[C@H](NC(=O)c2cc(N)cc(C(F)(F)F)c2)C1=O
[1]
  IC50: 1230 nM

## CCC(O)(CC)[C@H](CNCc1ccc(C)cc1C)NC(=O)CNC(=O)c1cc(C(F)(F)F)ccc1N
[1]
  IC50: 41 nM

## CCC[C@H](O)[C@H](CNCc1ccc(C)cc1C)NC(=O)CNC(=O)c1cc(C(F)(F)F)ccc1NC(=O)NC
[1]
  IC50: 6.7 nM

## CCC[C@@H](O)[C@H](CNCc1ccc(C)cc1C)NC(=O)CNC(=O)c1cc(C(F)(F)F)ccc1N
[2]
  inhibition: inactive
[1]
  IC50: 7 nM

## CCC[C@H](O)[C@H](CNCc1ccc(C)cc1C)NC(=O)CC(=O)Nc1cc(C(F)(F)F)ccc1N
[1]
  IC50: 43 nM

## CCC[C@H](O)[C@H](CNCc1ccc(C)cc1C)NC(=O)CC(=O)Nc1cc(C(F)(F)F)cc(C(F)(F)F)c1
[1]
  IC50: 690 nM

## CCC[C@H](O)[C@H](CNCc1ccc(C)cc1C)NC(=O)CC(=O)Nc1cc(C(F)(F)F)ccc1NC(=O)OC(C)(C)C
[1]
  IC50: 240 nM

## CCC[C@H](O)[C@H](CN(C)Cc1ccc(C)cc1C)NC(=O)CNC(=O)c1cc(C(F)(F)F)ccc1NC(=O)NC(C)C
[1]
  IC50: 440 nM

## CCC[C@H](O)[C@H](CNCc1ccc(C)cc1C)NC(=O)CC(=O)Nc1cc(N)cc(C(F)(F)F)c1
[1]
  IC50: 3.8 nM

## Cc1ccc(CNC[C@H](NC(=O)CNC(=O)c2cccc(C(F)(F)F)c2)[C@@H](O)CC(C)C)c(C)c1
[2]
  inhibition: inactive

## CCC[C@H](O)[C@H](CNCc1ccc(C)cc1C)NC(=O)CC(=O)Nc1cccc(C(F)(F)F)c1
[1]
  IC50: 28 nM

## CCC[C@H](O)[C@H](CNCc1ccc(C)cc1C)NC(=O)CNc1n[nH]c2ccc(C(F)(F)F)cc12
[1]
  IC50: 10 nM

## CCC[C@H](O)[C@H](CNCc1ccc(C)cc1C)N1CC[C@H](NC(=O)c2cc(C(F)(F)F)ccc2N)C1=O
[1]
  IC50: 900 nM

## Cc1ccc(CNC[C@H](NC(=O)CNC(=O)c2cc(C(F)(F)F)ccc2N)C2(O)CCCC2)c(C)c1
[1]
  IC50: 87 nM

## CCC[C@H](O)[C@H](CNCc1ccc(C)cc1C)NC(=O)CNC(=O)c1cc(C(F)(F)F)ccc1NC(=O)N1CCOCC1
[1]
  IC50: 3.8 nM

## CCC[C@H](O)[C@H](CNCc1ccc(C)cc1C)NC(=O)CNC(=O)c1cc(C(F)(F)F)ccc1NC(=O)N1CCNCC1
[1]
  IC50: 2.5 nM

## CCC[C@H](O)[C@H](CNCc1ccc(C)cc1C)NC(=O)Cc1nc2ccc(C(F)(F)F)cc2[nH]1
[10]
  inhibition (INH): 6%

## Cc1ccc(CNC[C@H](NC(=O)CNC(=O)c2cccc(C(F)(F)F)c2)[C@@H](O)C(C)C)c(C)c1
[1]
  IC50: 65 nM

## CCC[C@H](O)[C@H](CNCc1ccc(C)cc1C)NC(=O)CNC(=O)c1cc(N)cc(C(F)(F)F)c1
[1]
  IC50: 6.7 nM

## CCCNc1cc(NC(=O)CC(=O)N[C@@H](CNCc2ccc(C)cc2C)[C@@H](O)CCC)cc(C(F)(F)F)c1
[1]
  IC50: 20 nM

## CC[C@H](O)[C@H](CNCc1ccc(C)cc1C)NC(=O)CNC(=O)c1cc(C(F)(F)F)ccc1N
[1]
  IC50: 17 nM

## Cc1ccc(CNC[C@H](NC(=O)CNC(=O)c2cccc(C(F)(F)F)c2)[C@@H](O)CC(C)(C)C)c(C)c1
[1]
  IC50: 19 nM

## CCCC[C@H](O)[C@H](CNCc1ccc(C)cc1C)NC(=O)CNC(=O)c1cccc(C(F)(F)F)c1
[1]
  IC50: 5 nM

## CCC[C@H](O)[C@H](CNCc1ccc(C)cc1C)NC(=O)CNC(=O)c1cc(C(F)(F)F)ccc1NC(=O)OC(C)(C)C
[2]
  inhibition: Active
[1]
  IC50: 4 nM

## CCCC(O)(CCC)[C@H](CNCc1ccc(C)cc1C)NC(=O)CNC(=O)c1cc(C(F)(F)F)ccc1N
[1]
  IC50: 27 nM

## Cc1ccc(CNC[C@H](NC(=O)CNC(=O)c2cccc(C(F)(F)F)c2)[C@H](O)CC(C)C)c(C)c1
[2]
  inhibition: inactive

## CCC[C@H](O)[C@H](CNCc1ccc(C)cc1C)NC(=O)CC(=O)Nc1cc(NC(=O)OC(C)(C)C)cc(C(F)(F)F)c1
[1]
  IC50: 340 nM

## CCC[C@H](O)[C@H](CNCc1ccc(C)cc1C)NC(=O)CC(=O)Nc1cc(C(=O)NCC)cc(C(F)(F)F)c1
[1]
  IC50: 158 nM

## CCC[C@H](O)[C@H](CNCc1ccc(C)cc1C)NC(=O)CNC(=O)c1cc(C(F)(F)F)ccc1NCc1ccccc1
[1]
  IC50: 9.3 nM

## CCC[C@H](O)[C@H](CNCc1ccc(C)cc1C)NC(=O)CNC(=O)c1cccc(C(F)(F)F)c1
[2]
  inhibition: Active

## CCC[C@H](OC)[C@H](CNCc1ccc(C)cc1C)NC(=O)CNC(=O)c1cc(C(F)(F)F)ccc1N
[1]
  IC50: 11 nM

## CC[C@@H](O)[C@H](CNCc1ccc(C)cc1C)NC(=O)CNC(=O)c1cccc(C(F)(F)F)c1
[1]
  IC50: 390 nM

## CC[C@H](O)[C@H](CNCc1ccc(C)cc1C)NC(=O)CNC(=O)c1cccc(C(F)(F)F)c1
[1]
  IC50: 64 nM

## Cc1ccc(CNC[C@H](NC(=O)CNC(=O)c2cc(C(F)(F)F)ccc2N)C(C)(C)O)c(C)c1
[1]
  IC50: 160 nM

## CCC[C@H](O)[C@H](CNCc1ccc(C)cc1C)NC(=O)CC(=O)Nc1cc(NCC)cc(C(F)(F)F)c1
[1]
  IC50: 4.5 nM
